Patent US8178077B2, “Drug development target protein and target gene, and method of screening” (Reverse Proteomics Research Institute Co., Ltd., priority 2004, dated 2012)
Structures can show the parent of a compound that is named as a salt.

Biological target: T1, FLJ39196 clone-derived protein (human neurocalcin δ) (Homo sapiens, UniProt P61601)
T1 construct: A human full-length cDNA clone was expressed as a protein with an N-terminal His tag; His tag (N); made in house; host or cells: Escherichia coli BL21star(DE3)pLysS (pDEST17 Gateway expression plasmid)
Experiment: SEC/MS interaction analysis (size exclusion spin column and mass analysis) with FLJ39196 clone-derived protein
Format: binding
Description: To analyze the interactions between commonly used drugs and proteins expressed from human full-length cDNA clones while keeping both the proteins and the compounds in non-modified, non-immobilized state, size exclusion chromatography (SEC) and mass analysis were used in combination (FIGS. 1, 2). The specific procedures are shown below.
The compound-protein mixture prepared in step 1 was subjected to chromatography using an SEC column, the compound and the protein were separated by SEC, and the compound that interacted with the bound compound or protein contained in the protein fraction was analyzed using a mass analyzer.
Protein concentrations were measured using BCA Protein Assay (PIERCE), in consideration of the purity calculated by SDS-PAGE.
Mass analysis was performed using LCQ DECA XP (Thermoelectron) or Q-TOFmicro (Micromass), equipped with an ESI probe. The LC pump used was Agilent 1100 (Yokogawa Analytical Systems), and the autosampler used was HTC-PAL (CTC Analytics) equipped with a cooling stacker.
In the SEC method using 384-well spin columns, Unifilter 100 (Whatman), packed with 10 μL (dry volume) of Bio-Gel P6 (BIO-RAD) and swollen with milliQ water, was used as the SEC column. 13.3 μL of a protein-free reference standard or a 25 μM protein standard and 0.7 μL of a multiplied liquid comprising 25 μM of each pharmaceutical compound (5% DMSO aqueous solution) were mixed; 9 μL of this mixture was aliquoted into the SEC spin columns. The SEC spin column was mounted on an acetonitrile-aliquoted 384-well U-bottom plate and centrifuged; the SEC spin column filtrate, which is a protein fraction, was retrieved in 50% acetonitrile. The protein precipitate produced by the acetonitrile was removed via centrifugation and filtration for deproteinization; the resulting filtrate was concentrated by centrifugation and re-dissolved in 10 μL of 50% methanol to obtain a mass analysis sample. The mobile phase supplied to the mass analyzer was 0.1% formic acid/50% methanol solution in the positive ion mode, and 0.1% ammonia/50% methanol solution in the negative ion mode; these mobile phases were used at a flow rate of 40 μL/min. 2-μL of mass analysis samples were injected using an autosampler at 2-minute intervals; the mass spectral intensity of the compound was measured to obtain the spectral intensity of the pharmaceutical compound contained in the SEC spin column filtrate (protein fraction eluted from SEC).

[1] = protein 0 μM (protein-free reference), compound 1 μM
[2] = protein 0 μM (protein-free reference), compound 10 μM
[3] = protein 0 μM (protein-free reference), compound 100 μM
[4] = protein 0 μM (protein-free reference), compound 250 μM
[5] = protein 23.75 μM, compound 1 μM
[6] = protein 23.75 μM, compound 10 μM
[7] = protein 23.75 μM, compound 100 μM
[8] = protein 23.75 μM, compound 250 μM
[9] = protein 47.5 μM, compound 10 μM
[10] = protein 47.5 μM, compound 100 μM
[11] = protein 47.5 μM, compound 250 μM

| SMILES | spectral intensity of the compound in the SEC spin column filtrate (protein fraction) [1] | spectral intensity of the compound in the SEC spin column filtrate (protein fraction) [2] | spectral intensity of the compound in the SEC spin column filtrate (protein fraction) [3] | spectral intensity of the compound in the SEC spin column filtrate (protein fraction) [4] | spectral intensity of the compound in the SEC spin column filtrate (protein fraction) [5] | spectral intensity of the compound in the SEC spin column filtrate (protein fraction) [6] | spectral intensity of the compound in the SEC spin column filtrate (protein fraction) [7] | spectral intensity of the compound in the SEC spin column filtrate (protein fraction) [8] | spectral intensity of the compound in the SEC spin column filtrate (protein fraction) (protein 47.5 μM, compound 1 μM) | spectral intensity of the compound in the SEC spin column filtrate (protein fraction) [9] | spectral intensity of the compound in the SEC spin column filtrate (protein fraction) [10] | spectral intensity of the compound in the SEC spin column filtrate (protein fraction) [11] |
| --- | --- | --- | --- | --- | --- | --- | --- | --- | --- | --- | --- | --- |
| CN1CCC(=C2c3ccccc3Sc3ccccc32)CC1 [Pimethixene] | 2913965 | 4868887 | 58800844 | 224525009 | 2449690 | 5737072 | 121577640 | 265475649 | 2762592 | 9271060 | 197624997 | 359356100 |
| O=C(c1ccc(OCCN2CCCCC2)cc1)c1c(-c2ccc(O)cc2)sc2cc(O)ccc12 [Raloxifene hydrochloride] | 3754698 | 2330594 | 7909682 | 10553153 | 3790373 | 6024709 | 124641622 | 157539770 | 3014448 | 17385466 | 122918120 | 666932700 |
| COC(=O)[C@H]1[C@H]2C[C@@H]3c4[nH]c5cc(OC)ccc5c4CCN3C[C@H]2C[C@@H](OC(=O)/C=C/c2cc(OC)c(OC)c(OC)c2)[C@@H]1OC [Rescinnamine] | 9843174 | 6544896 | 12903374 | 7315419 | 11269941 | 21895843 | 215933519 | 288844471 | 17653515 | 40677751 | 675671326 | 1469409087 |
| CCCCCCCCNC(C)C(O)c1ccc(SC(C)C)cc1 (stereo not drawn) [Suloctidil] | 6080126 | 3684060 | 4969067 | 9177432 | 4318261 | 7828150 | 163940015 | 357100809 | 5977944 | 7209043 | 507388292 | 742015343 |
| CCOC(=O)Oc1c(OC)cc(C(=O)O[C@@H]2C[C@@H]3CN4CCc5c([nH]c6cc(OC)ccc56)[C@H]4C[C@@H]3[C@H](C(=O)OC)[C@H]2OC)cc1OC [Syrosingopine] | 38126829 | 47209784 | 41362697 | 38512184 | 63594361 | 101347281 | 465474678 | 596250311 | 70443152 | 105524442 | 897067633 | 1499127775 |
| Clc1ccc(C(OCCN2CCCCC2)c2ccccc2)cc1 (stereo not drawn) [chloperastine] | 2920008 | 13165487 | 276180260 | 803023959 | 2972794 | 9288224 | 218420294 | 773924506 | 4085344 | 18612563 | 338617522 | 1411536255 |
| CC(C)/N=c1\cc2n(-c3ccc(Cl)cc3)c3ccccc3nc-2cc1Nc1ccc(Cl)cc1 [clofazimine] | 1592610 | 3306068 | 1781607 | 1742291 | 2041846 | 15886830 | 138678443 | 380425425 | 2399851 | 57730302 | 312686548 | 411373516 |
| CCc1cc2c(s1)N(C)C(=O)CN=C2c1ccccc1Cl [clotiazepam] | 8089543 | 19826757 | 251469420 | 633414607 | 8254340 | 25038949 | 283452799 | 759706893 | 9022620 | 60448900 | 657940514 | 1089985810 |
| C[C@]12Cc3c[nH]nc3C[C@@H]1CC[C@@H]1[C@@H]2CC[C@@]2(C)[C@H]1CC[C@]2(C)O [stanozolol] | 3108300 | 2749518 | 3830491 | 4150230 | 3620481 | 10223886 | 127989356 | 194560574 | 3989532 | 25533379 | 619287498 | 778914733 |
